# Columns and labels:
# [1] = system: NCI-H929 myeloma cell line; assay: Cytotoxicity, flow cytometry (AnnexinV/propidium iodide negativity), NCI-H929; assay type: cell-based, human
# Experimental: (§1) Induction of apoptosis was measured in myeloma cell lines NCI-H929, OPM-2, and U266 as well as in peripheral blood mononuclear cells (PBMCs) of healthy donors by flow cytometry using established protocols thereby staining the cells with AnnexinV-fluorescein isothiocyanate and propidium iodide. Bortezomib (Eubio, Vienna, Austria) was used as positive control. Cell lines were purchased from DSMZ (Braunschweig, Germany) and routinely fingerprinted and tested for mycoplasma negativity. All cells (cell lines and PBMC) were grown in RPMI-1640 medium (Life Technologies, Paisley, UK) supplemented with 10% fetal calf serum (FCS; PAA, Linz, Austria), L-glutamine 100 µg/mL, and penicillin-streptomycin 100 U/mL. PBMCs from healthy donors were used after obtaining written informed consent at the University Hospital Salzburg (ethics committee approval 415-E/1287/6-2011). Cells were subjected to Ficoll separation (Ficoll PaqueTM) and incubated in RPMI-1640 Media with supplements as above. In brief, 0.5 × 10^6 myeloma cells/mL or similar numbers of PMBCs were incubated for 24 h and 48 h with or without the tested compounds dissolved in dimethyl sulfoxide at different concentrations. At least three analyses in triplicates were performed for each cell line and a solvent control was always included. As a positive control, the proteasome inhibitor bortezomib (BTZ) was used at concentrations of 10 and 5 nM. The extent of non-apoptotic cells (AnnexinV/propidium iodide negativity) was calculated as percentage of viable cells in respect to the untreated control. Data are shown as mean percentage of viable cells and standard error of the mean (SEM) (error bars).
# OPM-2 myeloma cell line = assay: Cytotoxicity, flow cytometry (AnnexinV/propidium iodide negativity), OPM-2; assay type: cell-based, human
# Experimental: as §1
# U266 myeloma cell line = assay: Cytotoxicity, flow cytometry (AnnexinV/propidium iodide negativity), U266; assay type: cell-based, human
# Experimental: as §1
# [2] = system: peripheral blood mononuclear cells (PBMCs) of healthy donors; assay: Cytotoxicity, flow cytometry (AnnexinV/propidium iodide negativity), PBMC of healthy donors; assay type: cell-based, human
# Experimental: as §1
# MCF7 cells = system: MCF7 cells; design: method as in PMID 20564500; details: 48 h of incubation; cited from earlier work
# [3] = system: doxorubicin-resistant-MCF7 (R-MCF7) cells; design: method as in PMID 20564500; details: doxorubicin-resistant MCF7, 48 h of incubation; cited from earlier work
# GABA(A)-receptors = system: GABA(A)-receptors; design: method as in PMID 21082802; details: cited from earlier work
# [4] = system: human squamous cell carcinoma (HSC-2) cells; design: method as in PMID 11824572; details: cited from earlier work
# [5] = system: normal human gingival fibroblasts (HGF); design: method as in PMID 11824572; details: cited from earlier work
# [6] = 25 µM, 24 h, % of untreated control, mean ± SEM (Table 1)
# [7] = 25 µM, 48 h, % of untreated control, mean ± SEM (Table 2)
# [8] = 50 µM, 24 h, % of untreated control, mean ± SEM (Table 1)
# [9] = 50 µM, 48 h, % of untreated control, mean ± SEM (Table 2)
# [10] = 12.5 µM, 24 h, second round (Table 3)
# [11] = 25 µM, 24 h, second round (Table 3)
# [12] = 37.5 µM, 24 h, second round (Table 3)
structure (smiles),measurement,setting,value
"CC(=O)OC(CC(C)C1C(=O)C(O)C2(C)C3CCC4C(C)(C)C(OC5OCC(O)C(O)C5O)CCC45CC35CCC12C)C1OC1(C)C [Compound 2, 23-O-acetylshengmanol-3-O-β-D-xylopyranoside]",MM Cells % Alive NCI-H929,[1]; [6],87.7 ± 4.9%
same,MM Cells % Alive NCI-H929,[1]; [7],63.9 ± 10.6%
same,MM Cells % Alive NCI-H929,[1]; [8],27.9 ± 12.2%
same,MM Cells % Alive NCI-H929,[1]; [9],17.4 ± 7.3%
same,MM Cells % Alive OPM-2,OPM-2 myeloma cell line; [6],86.2 ± 8.6%
same,MM Cells % Alive OPM-2,OPM-2 myeloma cell line; [7],84.6 ± 1.0%
same,MM Cells % Alive OPM-2,OPM-2 myeloma cell line; [8],71.0 ± 11.2%
same,MM Cells % Alive OPM-2,OPM-2 myeloma cell line; [9],51.7 ± 8.9%
same,MM Cells % Alive U266,U266 myeloma cell line; [6],79.4 ± 20.2%
same,MM Cells % Alive U266,U266 myeloma cell line; [7],90.2 ± 1.7%
same,MM Cells % Alive U266,U266 myeloma cell line; [8],56.3 ± 21.4%
same,MM Cells % Alive U266,U266 myeloma cell line; [9],62.1 ± 0.4%
same,PBMC % Alive,[2]; [6],94.7 ± 1.8%
same,PBMC % Alive,[2]; [7],92.7 ± 1.7%
same,PBMC % Alive,[2]; [8],84.0 ± 3.0%
same,PBMC % Alive,[2]; [9],76.1 ± 2.1%
same,IC50 MCF7,MCF7 cells,39 µg/mL
same,IC50 R-MCF7,[3],60 µg/mL
same,"effect on GABA(A)-receptors, factor by which it exceeds actein (1) and compound 3",GABA(A)-receptors,> 5
"COC(C)(C)C1OC23OC1CC(C)C2C1(C)CCC24CC25CCC(OC2OCC(O)C(O)C2O)C(C)(C)C5CCC4C1(C)C3O [Compound 7, 25-O-methylcimigenol-3-O-α-L-arabinopyranoside]",MM Cells % Alive NCI-H929,[1]; [10],95.5 ± 1.8%
same,MM Cells % Alive NCI-H929,[1]; [11],34.3 ± 8.0%
same,MM Cells % Alive NCI-H929,[1]; [12],2.5 ± 1.3%
same,IC50,"[1]; Homo sapiens, NCI-H929, 24 h, incubation for 24 h",14.7 µg/mL
same,MM Cells % Alive OPM-2,OPM-2 myeloma cell line; [10],99.8 ± 1.7%
same,MM Cells % Alive OPM-2,OPM-2 myeloma cell line; [11],88.0 ± 4.5%
same,MM Cells % Alive OPM-2,OPM-2 myeloma cell line; [12],31.3 ± 8.6%
same,IC50,"OPM-2 myeloma cell line; Homo sapiens, OPM-2, 24 h, incubation for 24 h",21.2 µg/mL
same,MM Cells % Alive U266,U266 myeloma cell line; [10],97.0 ± 3.5%
same,MM Cells % Alive U266,U266 myeloma cell line; [11],51.3 ± 11.8%
same,MM Cells % Alive U266,U266 myeloma cell line; [12],5.3 ± 2.8%
same,IC50,"U266 myeloma cell line; Homo sapiens, U-266, 24 h, incubation for 24 h",16.2 µg/mL
same,IC50 U266,U266 myeloma cell line; incubation for 24 h,16.1 µg/mL
same,PBMC % Alive,[2]; [10],105.3 ± 0.6%
same,PBMC % Alive,[2]; [11],81.0 ± 8.5%
same,PBMC % Alive,[2]; [12],25.0 ± 6.3%
same,IC50,"[2]; Homo sapiens, PBMC, 24 h, incubation for 24 h",19.9 µg/mL
same,cytotoxic effects against HSC-2 cells (in words),[4],moderate effects
same,cytotoxic effects against HGF (in words),[5],moderate effects

# From paper PMC7070908, “Structure-Guided Identification of Black Cohosh (Actaea racemosa) Triterpenoids with In Vitro Activity against Multiple Myeloma” (Molecules, 2020)
